Values quoted from earlier work, collected in patent US6753013B1, “Pharmaceutical composition” (Leo Pharmaceutical Products, Ltd. A/S, priority 1999, dated 2004).

Tested on: psoriatic skin
Conditions: simultaneous application of a steroid, such as betamethasone, onto psoriatic skin

Compound: C=C1/C(=C\C=C2/CCC[C@]3(C)[C@@H]([C@H](C)/C=C/[C@@H](O)C4CC4)CC[C@@H]23)C[C@@H](O)C[C@@H]1O [calcipotriol]
- Skin irritative side effects: alleviated
